These are literature values, as cited in patent publication US6166065A, “2,3-dioxabicyclo[3.3.1]nonane derivatives and antimalarial pharmaceutical compositions comprising them” (Yeda Research and Development Co., Ltd., priority 1997, dated 2000).

For data set [1] the following is noted: cited from earlier work.
Data set [2] relates to Plasmodium berghei (N strain). On the set-up: ED90: unit not given beside the values; ED50: unit not given here. The conditions noted are these: against P. berghei; cited from earlier work.

SMILES strings stand for the structures.

Consider `C[C@@H]1C(=O)C[C@H]2C[C@@H]1OO[C@@]2(C)/C=C\c1ccc(C(F)(F)F)cc1C(F)(F)F` [arteflene], for which the “in vitro and in vivo antimalarial screening, clinical trials” value in data set [1] is listed as “gave encouraging results”. In addition, in data set [2], the ED50 was 2.7 and the ED90 was 3.9.
